Reference: US20200102295A1, “NITROCATECHOL DERIVATIVES AS COMT INHIBITORS” (BIAL - PORTELA & CA, S.A., priority 2005, published 2020)

Tests used:
mouse liver COMT = biological target: T1, mouse liver COMT (Mus musculus, UniProt O88587); assay: Mouse liver COMT activity after oral administration of test compounds; assay type: in vivo; details: 3 mg/kg oral, 3 h after administration
T1 construct: Aliquots of 0.5 ml of liver homogenates were preincubated; from tissue; host or cells: mouse liver homogenate (NMRI mice, dosed orally; ex vivo activity)
T1 sequence (O88587 1-265): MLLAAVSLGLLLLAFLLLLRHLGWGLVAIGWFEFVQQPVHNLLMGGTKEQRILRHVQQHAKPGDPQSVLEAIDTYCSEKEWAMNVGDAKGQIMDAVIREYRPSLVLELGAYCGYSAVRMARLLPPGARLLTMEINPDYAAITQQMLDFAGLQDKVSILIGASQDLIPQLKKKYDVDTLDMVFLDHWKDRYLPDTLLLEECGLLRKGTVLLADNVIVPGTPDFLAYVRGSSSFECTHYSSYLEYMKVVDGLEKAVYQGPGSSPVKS

[1] = tested on: Neuro 2A mouse neuroblastoma cells; assay: Cell toxicity: Neuro 2A cell viability (calcein-AM); assay type: cell-based; details: Neuro 2A cells, 30 μM, 24 h exposure
rat liver COMT = biological target: T2, rat liver COMT (Rattus norvegicus, UniProt P22734); assay: Rat liver COMT activity after oral administration of test compounds; assay type: in vivo; details: 3 mg/kg oral
T2 construct: the organs were immediately removed and homogenised in 5 mM phosphate buffer of pH 7.8; from tissue; host or cells: rat liver homogenate (Wistar rats, dosed orally; ex vivo activity)
T2 sequence (P22734 1-264): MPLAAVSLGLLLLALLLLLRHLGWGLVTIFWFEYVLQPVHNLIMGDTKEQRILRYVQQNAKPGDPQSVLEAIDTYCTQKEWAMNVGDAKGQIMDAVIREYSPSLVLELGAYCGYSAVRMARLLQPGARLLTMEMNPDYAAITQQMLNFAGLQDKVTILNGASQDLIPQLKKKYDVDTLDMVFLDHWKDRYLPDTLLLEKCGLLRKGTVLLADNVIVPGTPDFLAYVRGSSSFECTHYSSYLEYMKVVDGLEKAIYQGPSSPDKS

[2] = tested on: plasma levels of L-DOPA and 3-O-methyl-L-DOPA (3-OMD); assay: Levels of L-DOPA and 3-O-methyl-L-DOPA in plasma of rats treated with L-DOPA plus benserazide; assay type: in vivo, rat; details: 3 mg/kg oral, 2 h after administration; for L-DOPA % increase (plasma level, % control) / 3-OMD % reduction (plasma level, % control): L-DOPA plus benserazide 1 h before plasma collection; for 3-OMD % reduction (plasma level, % control): given with minus sign; for L-Dopa/3-OMD: plasma ratio

SMILES | COMT activity (% of control) (mouse liver COMT) | % of viable cells [1] [%] | Rat Liver COMT activity (% control) (rat liver COMT; 1 h after administration) | Rat Liver COMT activity (% control) (rat liver COMT; 3 h after administration) | Rat Liver COMT activity (% control) (rat liver COMT; 6 h after administration) | Rat Liver COMT activity (% control) (rat liver COMT; 9 h after administration) | L-DOPA % increase (plasma level, % control) [2] [%] | 3-OMD % reduction (plasma level, % control) [2] [%] | L-Dopa/3-OMD [2]
Cc1c(C)c(C)[n+]([O-])c(Cl)c1-c1noc(-c2cc(O)c(O)c([N+](=O)[O-])c2)n1 [Compound 41, 5-[3-(2-Chloro-4,5,6-trimethyl-1-oxy-pyridin-3-yl)-[1,2,4]oxadiazol-5-yl]-3-nitrobenzene-1,2-diol] | 14 % of control | 95.1 | 21.2 | 9.3 | 18.8 | 39.7 | 95.2 | −72.3 | 7.1
Cc1c(Cl)c(C)[n+]([O-])c(Br)c1-c1noc(-c2cc(O)c(O)c([N+](=O)[O-])c2)n1 [Compound 47, 5-[3-(2-Bromo-5-chloro-4,6-dimethyl-1-oxy-pyridin-3-yl)-[1,2,4]oxadiazol-5-yl]-3-nitrobenzene-1,2-diol] | 25.2 % of control | 81.2 | 10.6 | 4.0 | 3.8 | 8.2 | 102.9 | −58.5 | 4.9
Cc1cc(C(F)(F)F)c(-c2noc(-c3cc(O)c(O)c([N+](=O)[O-])c3)n2)c[n+]1[O-] [Compound 30, 5-[3-(6-Methyl-1-oxy-4-trifluoromethyl-pyridin-3-yl)-[1,2,4]oxadiazol-5-yl]-3-nitro-benzene-1,2-diol] | 8.8 % of control | 81.8 | 6.3 | 34.8 | 41.2 | 54.5 | 103.5 | −75.0 | 8.1
Cc1c(-c2noc(-c3cc(O)c(O)c([N+](=O)[O-])c3)n2)ccc(C(F)(F)F)[n+]1[O-] [Compound 29, 5-[3-(2-Methyl-1-oxy-6-trifluoromethyl-pyridin-3-yl)-[1,2,4]oxadiazol-5-yl]-3-nitro-benzene-1,2-diol] | 10.9 % of control | 62.2 | 1.2 | 18.5 | 39.7 | 56.4 | 105.1 | −80.7 | 10.6
